Reference: ChEMBL document CHEMBL4507259 (2021)

Key:
[1] = biological target: Proto-oncogene tyrosine-protein kinase receptor Ret (Homo sapiens) (UniProt P07949); conditions: Compound concentration 1000.0 nM
[2] = biological target: D(2) dopamine receptor (Homo sapiens) (UniProt P14416); conditions: Compound concentration 10.0 uM
[3] = biological target: Serine/threonine-protein kinase PLK3 (Homo sapiens) (UniProt Q9H4B4); conditions: Compound concentration 1000.0 nM
[4] = test system: Epidermal growth factor receptor (Homo sapiens), P00533 [T790M]; conditions: Compound concentration 1000.0 nM
[5] = biological target: RAF proto-oncogene serine/threonine-protein kinase (Homo sapiens) (UniProt P04049); conditions: Compound concentration 1000.0 nM
[6] = biological target: Homeodomain-interacting protein kinase 4 (Homo sapiens) (UniProt Q8NE63); conditions: Compound concentration 1000.0 nM
[7] = biological target: RAC-gamma serine/threonine-protein kinase (Homo sapiens) (UniProt Q9Y243); conditions: Compound concentration 1000.0 nM
[8] = test system: Receptor-type tyrosine-protein kinase FLT3 (Homo sapiens), P36888 [D835H]; conditions: Compound concentration 1000.0 nM
[9] = biological target: Focal adhesion kinase 1 (Homo sapiens) (UniProt Q05397); conditions: Compound concentration 1000.0 nM
[10] = biological target: Serine/threonine-protein kinase PAK 5 (Homo sapiens) (UniProt Q9P286); conditions: Compound concentration 1000.0 nM
[11] = biological target: Serine/threonine-protein kinase TAO2 (Homo sapiens) (UniProt Q9UL54); conditions: Compound concentration 1000.0 nM
[12] = biological target: Bone morphogenetic protein receptor type-1B (Homo sapiens) (UniProt O00238); conditions: Compound concentration 1000.0 nM
[13] = biological target: Phosphatidylinositol 5-phosphate 4-kinase type-2 gamma (Homo sapiens) (UniProt Q8TBX8); conditions: Compound concentration 1000.0 nM
[14] = test system: Epidermal growth factor receptor (Homo sapiens), P00533 [G719C]; conditions: Compound concentration 1000.0 nM
[15] = biological target: Mitogen-activated protein kinase 6 (Homo sapiens) (UniProt Q16659); conditions: Compound concentration 1000.0 nM
[16] = biological target: Cyclin-dependent kinase-like 2 (Homo sapiens) (UniProt Q92772); conditions: Compound concentration 1000.0 nM
[17] = biological target: Tyrosine-protein kinase Lyn (Homo sapiens) (UniProt P07948); conditions: Compound concentration 1000.0 nM
[18] = biological target: Mitogen-activated protein kinase kinase kinase 3 (Homo sapiens) (UniProt Q99759); conditions: Compound concentration 1000.0 nM
[19] = biological target: Serine/threonine-protein kinase VRK2 (Homo sapiens) (UniProt Q86Y07); conditions: Compound concentration 1000.0 nM
[20] = biological target: Serine/threonine-protein kinase Nek2 (Homo sapiens) (UniProt P51955); conditions: Compound concentration 1000.0 nM
[21] = biological target: Leucine-rich repeat serine/threonine-protein kinase 2 (Homo sapiens) (UniProt Q5S007); conditions: Compound concentration 1000.0 nM
[22] = biological target: Dual specificity tyrosine-phosphorylation-regulated kinase 1B (Homo sapiens) (UniProt Q9Y463); conditions: Compound concentration 1000.0 nM
[23] = biological target: T1, 5-hydroxytryptamine receptor 1A (Homo sapiens) (UniProt P08908); conditions: Compound concentration 10.0 uM
T1 sequence (whole entry): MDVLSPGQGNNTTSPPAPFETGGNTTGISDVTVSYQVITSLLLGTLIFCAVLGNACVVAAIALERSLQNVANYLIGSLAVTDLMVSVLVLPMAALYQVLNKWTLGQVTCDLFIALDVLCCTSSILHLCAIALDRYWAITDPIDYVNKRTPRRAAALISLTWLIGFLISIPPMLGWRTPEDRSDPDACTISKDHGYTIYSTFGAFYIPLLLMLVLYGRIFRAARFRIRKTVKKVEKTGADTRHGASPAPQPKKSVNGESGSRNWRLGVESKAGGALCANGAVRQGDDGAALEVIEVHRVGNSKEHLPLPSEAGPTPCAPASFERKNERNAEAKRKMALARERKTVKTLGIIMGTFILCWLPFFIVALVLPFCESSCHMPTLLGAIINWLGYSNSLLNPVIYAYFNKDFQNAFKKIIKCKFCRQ

[24] = biological target: Serine/threonine-protein kinase Nek9 (Homo sapiens) (UniProt Q8TD19); conditions: Compound concentration 1000.0 nM
[25] = biological target: Serine/threonine-protein kinase Sgk3 (Homo sapiens) (UniProt Q96BR1); conditions: Compound concentration 1000.0 nM
[26] = biological target: Cyclin-dependent kinase 11B (Homo sapiens) (UniProt P21127); conditions: Compound concentration 1000.0 nM
[27] = biological target: Vascular endothelial growth factor receptor 2 (Homo sapiens) (UniProt P35968); conditions: Compound concentration 1000.0 nM
[28] = biological target: Macrophage colony-stimulating factor 1 receptor (Homo sapiens) (UniProt P07333); conditions: Compound concentration 1000.0 nM
[29] = biological target: Casein kinase I isoform delta (Homo sapiens) (UniProt P48730); conditions: Compound concentration 1000.0 nM
[30] = biological target: Cyclin-dependent kinase-like 1 (Homo sapiens) (UniProt Q00532); conditions: Compound concentration 1000.0 nM
[31] = biological target: Cyclin-dependent kinase 11A (Homo sapiens) (UniProt Q9UQ88); conditions: Compound concentration 1000.0 nM
[32] = biological target: Inhibitor of nuclear factor kappa-B kinase subunit epsilon (Homo sapiens) (UniProt Q14164); conditions: Compound concentration 1000.0 nM
[33] = biological target: Sigma non-opioid intracellular receptor 1 (Homo sapiens) (UniProt Q99720); assay: sigma (non-selective) (h) CEREP ligand profiling; conditions: filed as agonist, Compound concentration 10.0 uM
[34] = biological target: BDNF/NT-3 growth factors receptor (Homo sapiens) (UniProt Q16620); conditions: Compound concentration 1000.0 nM
[35] = biological target: Serine/threonine-protein kinase RIO3 (Homo sapiens) (UniProt O14730); conditions: Compound concentration 1000.0 nM
[36] = biological target: Homeodomain-interacting protein kinase 2 (Homo sapiens) (UniProt Q9H2X6); conditions: Compound concentration 1000.0 nM
[37] = test system: Epidermal growth factor receptor (Homo sapiens), P00533 [L858R,T790M]; conditions: Compound concentration 1000.0 nM

Sequence of D(2) dopamine receptor (Homo sapiens) (P14416 whole entry): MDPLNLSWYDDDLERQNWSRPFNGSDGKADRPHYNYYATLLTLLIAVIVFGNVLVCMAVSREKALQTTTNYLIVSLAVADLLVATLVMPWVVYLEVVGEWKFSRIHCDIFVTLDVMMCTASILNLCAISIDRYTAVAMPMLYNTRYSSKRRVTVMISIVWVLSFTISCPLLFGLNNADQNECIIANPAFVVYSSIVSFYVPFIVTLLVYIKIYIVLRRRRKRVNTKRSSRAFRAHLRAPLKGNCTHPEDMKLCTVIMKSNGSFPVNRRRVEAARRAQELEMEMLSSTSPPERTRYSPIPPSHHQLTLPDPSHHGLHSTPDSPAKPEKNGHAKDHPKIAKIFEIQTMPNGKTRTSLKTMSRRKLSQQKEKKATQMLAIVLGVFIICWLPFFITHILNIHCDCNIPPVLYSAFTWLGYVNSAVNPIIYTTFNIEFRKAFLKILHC
Sequence of Cyclin-dependent kinase-like 2 (Homo sapiens) (Q92772 whole entry): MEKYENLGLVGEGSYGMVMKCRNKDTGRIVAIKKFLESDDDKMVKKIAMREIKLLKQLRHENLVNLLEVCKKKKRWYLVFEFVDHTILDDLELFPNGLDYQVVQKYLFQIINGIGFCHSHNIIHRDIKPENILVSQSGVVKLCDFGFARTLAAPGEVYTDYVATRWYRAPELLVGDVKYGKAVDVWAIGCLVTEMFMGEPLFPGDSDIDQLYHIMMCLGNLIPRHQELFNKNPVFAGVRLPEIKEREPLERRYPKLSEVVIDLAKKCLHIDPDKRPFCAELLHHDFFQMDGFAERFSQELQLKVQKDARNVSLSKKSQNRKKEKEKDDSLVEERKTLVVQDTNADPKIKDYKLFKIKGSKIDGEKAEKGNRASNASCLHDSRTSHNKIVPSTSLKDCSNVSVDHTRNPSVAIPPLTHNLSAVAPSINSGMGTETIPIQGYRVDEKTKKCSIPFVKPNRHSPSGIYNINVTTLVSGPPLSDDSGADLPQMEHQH
Sequence of Homeodomain-interacting protein kinase 2 (Homo sapiens) (Q9H2X6 whole entry, looked up): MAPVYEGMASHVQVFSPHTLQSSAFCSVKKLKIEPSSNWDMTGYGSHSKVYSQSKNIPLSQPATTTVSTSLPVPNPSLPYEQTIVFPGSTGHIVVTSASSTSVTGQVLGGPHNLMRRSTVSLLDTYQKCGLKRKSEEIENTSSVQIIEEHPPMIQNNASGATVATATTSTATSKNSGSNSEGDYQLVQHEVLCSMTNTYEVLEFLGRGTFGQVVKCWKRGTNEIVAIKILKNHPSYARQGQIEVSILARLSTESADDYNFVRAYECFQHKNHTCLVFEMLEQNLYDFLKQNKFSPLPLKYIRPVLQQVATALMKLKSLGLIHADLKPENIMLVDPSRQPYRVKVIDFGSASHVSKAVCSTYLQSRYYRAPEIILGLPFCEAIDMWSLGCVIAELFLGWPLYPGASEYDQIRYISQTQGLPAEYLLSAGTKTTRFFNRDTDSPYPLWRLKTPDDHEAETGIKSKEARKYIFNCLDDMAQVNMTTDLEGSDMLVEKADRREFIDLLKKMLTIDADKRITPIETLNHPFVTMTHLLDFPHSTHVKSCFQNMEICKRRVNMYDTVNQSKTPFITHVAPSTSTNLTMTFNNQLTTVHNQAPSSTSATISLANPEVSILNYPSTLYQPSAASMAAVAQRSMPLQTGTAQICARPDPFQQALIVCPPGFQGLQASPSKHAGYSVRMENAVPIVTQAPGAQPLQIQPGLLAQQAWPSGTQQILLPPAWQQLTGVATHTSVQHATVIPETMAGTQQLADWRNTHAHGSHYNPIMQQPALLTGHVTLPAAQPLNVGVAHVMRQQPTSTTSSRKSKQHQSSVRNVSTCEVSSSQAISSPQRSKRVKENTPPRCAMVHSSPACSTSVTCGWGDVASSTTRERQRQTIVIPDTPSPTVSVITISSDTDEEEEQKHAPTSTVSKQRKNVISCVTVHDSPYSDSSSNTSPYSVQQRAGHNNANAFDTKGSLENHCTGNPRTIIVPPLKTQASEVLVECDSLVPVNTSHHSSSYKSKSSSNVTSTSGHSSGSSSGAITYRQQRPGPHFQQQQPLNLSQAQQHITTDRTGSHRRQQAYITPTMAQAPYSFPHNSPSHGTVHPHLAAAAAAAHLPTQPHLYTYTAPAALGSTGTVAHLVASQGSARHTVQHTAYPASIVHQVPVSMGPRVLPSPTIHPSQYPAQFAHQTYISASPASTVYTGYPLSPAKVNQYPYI
Sequence of Cyclin-dependent kinase 11A (Homo sapiens) (Q9UQ88 whole entry): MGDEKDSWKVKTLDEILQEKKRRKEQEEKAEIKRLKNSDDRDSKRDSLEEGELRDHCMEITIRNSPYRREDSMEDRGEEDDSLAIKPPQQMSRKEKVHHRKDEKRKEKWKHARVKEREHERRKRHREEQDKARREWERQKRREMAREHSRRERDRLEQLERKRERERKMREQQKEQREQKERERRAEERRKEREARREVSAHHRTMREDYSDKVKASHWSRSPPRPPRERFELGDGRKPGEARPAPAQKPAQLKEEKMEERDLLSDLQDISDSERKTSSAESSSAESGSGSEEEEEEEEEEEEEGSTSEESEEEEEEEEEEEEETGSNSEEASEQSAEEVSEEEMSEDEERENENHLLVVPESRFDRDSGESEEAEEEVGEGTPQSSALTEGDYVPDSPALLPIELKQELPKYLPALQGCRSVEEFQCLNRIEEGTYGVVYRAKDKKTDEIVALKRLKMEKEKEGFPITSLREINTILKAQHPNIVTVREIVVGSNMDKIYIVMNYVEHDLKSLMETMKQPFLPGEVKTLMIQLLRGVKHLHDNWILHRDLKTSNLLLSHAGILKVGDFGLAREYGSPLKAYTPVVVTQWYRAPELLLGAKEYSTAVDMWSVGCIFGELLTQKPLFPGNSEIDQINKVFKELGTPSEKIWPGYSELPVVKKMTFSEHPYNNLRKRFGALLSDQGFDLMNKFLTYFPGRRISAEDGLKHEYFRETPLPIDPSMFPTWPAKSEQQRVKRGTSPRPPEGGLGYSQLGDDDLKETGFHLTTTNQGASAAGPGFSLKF
Sequence of Casein kinase I isoform delta (Homo sapiens) (P48730 whole entry, looked up, canonical isoform): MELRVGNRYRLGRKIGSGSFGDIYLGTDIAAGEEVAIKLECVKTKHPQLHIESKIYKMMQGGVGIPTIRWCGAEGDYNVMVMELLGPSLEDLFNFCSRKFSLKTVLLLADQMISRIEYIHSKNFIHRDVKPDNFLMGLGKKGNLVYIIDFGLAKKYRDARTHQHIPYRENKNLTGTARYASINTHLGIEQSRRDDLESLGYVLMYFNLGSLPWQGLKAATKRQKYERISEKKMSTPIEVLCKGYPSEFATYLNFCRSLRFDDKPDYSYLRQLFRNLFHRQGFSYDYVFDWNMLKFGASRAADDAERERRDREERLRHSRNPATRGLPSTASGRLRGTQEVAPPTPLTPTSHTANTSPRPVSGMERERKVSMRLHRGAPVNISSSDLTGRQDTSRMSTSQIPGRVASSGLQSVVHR
Sequence of Bone morphogenetic protein receptor type-1B (Homo sapiens) (O00238 whole entry): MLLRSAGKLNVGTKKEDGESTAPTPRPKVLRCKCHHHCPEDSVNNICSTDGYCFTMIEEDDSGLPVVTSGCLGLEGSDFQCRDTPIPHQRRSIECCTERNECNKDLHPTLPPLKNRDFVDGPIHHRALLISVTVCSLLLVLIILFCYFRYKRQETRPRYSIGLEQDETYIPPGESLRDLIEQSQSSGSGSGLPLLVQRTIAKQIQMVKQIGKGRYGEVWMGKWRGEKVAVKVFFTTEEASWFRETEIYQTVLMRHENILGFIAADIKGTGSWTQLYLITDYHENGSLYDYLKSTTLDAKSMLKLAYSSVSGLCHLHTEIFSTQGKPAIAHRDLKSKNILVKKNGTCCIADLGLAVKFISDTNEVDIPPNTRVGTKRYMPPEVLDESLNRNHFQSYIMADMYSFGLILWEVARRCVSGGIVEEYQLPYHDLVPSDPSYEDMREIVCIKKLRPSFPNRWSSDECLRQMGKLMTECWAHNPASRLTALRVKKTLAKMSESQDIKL
Sequence of Serine/threonine-protein kinase PAK 5 (Homo sapiens) (Q9P286 whole entry, looked up): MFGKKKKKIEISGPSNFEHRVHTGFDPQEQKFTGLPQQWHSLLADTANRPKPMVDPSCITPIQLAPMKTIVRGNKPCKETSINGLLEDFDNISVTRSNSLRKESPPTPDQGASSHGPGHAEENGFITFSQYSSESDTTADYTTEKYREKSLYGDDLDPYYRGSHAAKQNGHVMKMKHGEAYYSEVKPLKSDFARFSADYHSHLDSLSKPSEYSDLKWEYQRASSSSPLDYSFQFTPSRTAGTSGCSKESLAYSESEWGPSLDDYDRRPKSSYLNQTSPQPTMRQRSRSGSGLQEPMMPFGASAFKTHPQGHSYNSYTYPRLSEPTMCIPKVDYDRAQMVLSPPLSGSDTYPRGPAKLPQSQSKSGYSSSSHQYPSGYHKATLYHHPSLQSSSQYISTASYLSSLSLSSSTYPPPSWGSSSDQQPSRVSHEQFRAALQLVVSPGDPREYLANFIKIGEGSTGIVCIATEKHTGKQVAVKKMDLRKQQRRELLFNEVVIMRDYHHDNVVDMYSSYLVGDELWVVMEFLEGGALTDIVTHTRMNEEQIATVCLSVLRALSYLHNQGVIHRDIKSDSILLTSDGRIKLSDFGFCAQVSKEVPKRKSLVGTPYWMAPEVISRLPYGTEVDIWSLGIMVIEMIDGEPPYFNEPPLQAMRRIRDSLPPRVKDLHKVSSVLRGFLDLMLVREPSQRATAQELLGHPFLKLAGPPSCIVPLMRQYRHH
Sequence of Sigma non-opioid intracellular receptor 1 (Homo sapiens) (Q99720 whole entry): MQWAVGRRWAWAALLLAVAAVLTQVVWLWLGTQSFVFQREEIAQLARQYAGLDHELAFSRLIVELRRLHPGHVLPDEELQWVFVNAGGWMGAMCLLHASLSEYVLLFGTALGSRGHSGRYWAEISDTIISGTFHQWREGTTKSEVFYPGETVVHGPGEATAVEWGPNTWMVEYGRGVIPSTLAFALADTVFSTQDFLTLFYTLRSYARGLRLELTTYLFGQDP

CNC(=O)Nc1ccc2c(c1)CC[C@@]21OC(=O)N(CC(=O)N(Cc2ccc(F)cc2)[C@@H](C)C(F)(F)F)C1=O [A-485]
inactive: residual activity [1] 90% | inhibition [2] 15.5% | residual activity [3] 86% | residual activity [4] 73% | residual activity [5] 100% | residual activity [6] 97% | residual activity [7] 100% | residual activity [8] 86% | residual activity [9] 94% | residual activity [10] 100% | residual activity [11] 91% | residual activity [12] 82% | residual activity [13] 93% | residual activity [14] 97% | residual activity [15] 100% | residual activity [16] 100% | residual activity [17] 89% | residual activity [18] 86% | residual activity [19] 91% | residual activity [20] 100% | residual activity [21] 79% | residual activity [22] 81% | inhibition [23] 6.87% | residual activity [24] 78% | residual activity [25] 68% | residual activity [26] 84% | residual activity [27] 83% | residual activity [28] 90% | residual activity [29] 99% | residual activity [30] 86% | residual activity [31] 83% | residual activity [32] 51% | inhibition [33] -3% | residual activity [34] 95% | residual activity [35] 89% | residual activity [36] 95% | residual activity [37] 91%

CNC(=O)Nc1ccc2c(c1)[C@@]1(CC2)OC(=O)N(CC(=O)N(Cc2ccc(F)cc2)[C@@H](C)C(F)(F)F)C1=O [A-486]
inactive: residual activity [1] 93% | inhibition [2] -8.75% | residual activity [3] 84% | residual activity [4] 73% | residual activity [5] 100% | residual activity [6] 100% | residual activity [7] 94% | residual activity [8] 99% | residual activity [9] 100% | residual activity [10] 100% | residual activity [11] 95% | residual activity [12] 100% | residual activity [13] 100% | residual activity [14] 100% | residual activity [15] 97% | residual activity [16] 83% | residual activity [17] 100% | residual activity [18] 75% | residual activity [19] 97% | residual activity [20] 100% | residual activity [21] 71% | residual activity [22] 100% | inhibition [23] 4.17% | residual activity [24] 95% | residual activity [25] 72% | residual activity [26] 97% | residual activity [27] 84% | residual activity [28] 100% | residual activity [29] 100% | residual activity [30] 91% | residual activity [31] 94% | residual activity [32] 75% | inhibition [33] 7% | residual activity [34] 89% | residual activity [35] 100% | residual activity [36] 78% | residual activity [37] 83%
